From the NIST ThermoML archive (doi:10.1021/je060271a)
Several values for one entry are separate records, joined by “and”; a condition that tells them apart may be missing. Equal entries are not always repeated.

Settings: 343.15 K, Liquid, Vibrating tube method

CCCCCC(=O)OCC(COC(=O)CCCCC)(COC(=O)CCCCC)COC(=O)CCCCC [pentaerythritol tetrahexanoate]
Settings	mass density
311.7 kPa	957.4 kg/m3
311.9 kPa	957.5 kg/m3
312 kPa	957.2 kg/m3
312.2 kPa	957.3 kg/m3
312.5 kPa	957.3 kg/m3
315 kPa	957.3 kg/m3
315.7 kPa	957.4 kg/m3
316 kPa	957.4 kg/m3
316.5 kPa	957.4 kg/m3
316.6 kPa	957.4 kg/m3
316.7 kPa	957.4 kg/m3
318.5 kPa	957.4 kg/m3
318.8 kPa	957.3 kg/m3
319.3 kPa	957.3 kg/m3 and 957.2 kg/m3 and 957.4 kg/m3
319.7 kPa	957.3 kg/m3
319.9 kPa	957.3 kg/m3
320.4 kPa	957.2 kg/m3
320.7 kPa	957.3 kg/m3
321.2 kPa	957.3 kg/m3
322.1 kPa	957.1 kg/m3
322.5 kPa	957.3 kg/m3
322.8 kPa	957.3 kg/m3
323.1 kPa	957.3 kg/m3
323.2 kPa	957.4 kg/m3
323.3 kPa	957.2 kg/m3
323.7 kPa	957.4 kg/m3
323.9 kPa	957.3 kg/m3
324 kPa	957.3 kg/m3
324.2 kPa	957.3 kg/m3
324.5 kPa	957.3 kg/m3
324.7 kPa	957.3 kg/m3
325.1 kPa	957.3 kg/m3
325.2 kPa	957.3 kg/m3
325.9 kPa	957.3 kg/m3
326.3 kPa	957.3 kg/m3
326.4 kPa	957.4 kg/m3
326.6 kPa	957.3 kg/m3
327 kPa	957.2 kg/m3
327.1 kPa	957.3 kg/m3
327.5 kPa	957.4 kg/m3
327.7 kPa	957.2 kg/m3
328 kPa	957.4 kg/m3
333.2 kPa	957.4 kg/m3
333.4 kPa	957.3 kg/m3
333.7 kPa	957.2 kg/m3
333.9 kPa	957.3 kg/m3
334.3 kPa	957.2 kg/m3
334.6 kPa	957.3 kg/m3
334.8 kPa	957.3 kg/m3
335.1 kPa	957.4 kg/m3
335.5 kPa	957.3 kg/m3
336.2 kPa	957.3 kg/m3
336.5 kPa	957.3 kg/m3
336.9 kPa	957.4 kg/m3
338.1 kPa	957.3 kg/m3
338.6 kPa	957.3 kg/m3
339.1 kPa	957.3 kg/m3 and 957.2 kg/m3
339.5 kPa	957.3 kg/m3
339.8 kPa	957.3 kg/m3
340.2 kPa	957.3 kg/m3
340.5 kPa	957.3 kg/m3
340.9 kPa	957.5 kg/m3
341.6 kPa	957.4 kg/m3 and 957.2 kg/m3
341.9 kPa	957.4 kg/m3
342.1 kPa	957.4 kg/m3
342.8 kPa	957.2 kg/m3 and 957.3 kg/m3
343.1 kPa	957.3 kg/m3
343.5 kPa	957.3 kg/m3
343.6 kPa	957.4 kg/m3
344.2 kPa	957.4 kg/m3
344.3 kPa	957.3 kg/m3
345.9 kPa	957.3 kg/m3
346.4 kPa	957.4 kg/m3
346.8 kPa	957.3 kg/m3
347.3 kPa	957.4 kg/m3
348 kPa	957.3 kg/m3
348.3 kPa	957.2 kg/m3
351.8 kPa	957.3 kg/m3
352.2 kPa	957.2 kg/m3
352.7 kPa	957.4 kg/m3
352.9 kPa	957.2 kg/m3
353 kPa	957.3 kg/m3
358.8 kPa	957.4 kg/m3
359.3 kPa	957.3 kg/m3
359.6 kPa	957.4 kg/m3
363.3 kPa	957.4 kg/m3
363.6 kPa	957.3 kg/m3
364 kPa	957.4 kg/m3
364.5 kPa	957.4 kg/m3
364.7 kPa	957.4 kg/m3
365 kPa	957.4 kg/m3
365.4 kPa	957.4 kg/m3
368.8 kPa	957.3 kg/m3
369.2 kPa	957.3 kg/m3
369.7 kPa	957.3 kg/m3
370.1 kPa	957.4 kg/m3
372.8 kPa	957.3 kg/m3
373.2 kPa	957.4 kg/m3
373.7 kPa	957.4 kg/m3
374.1 kPa	957.5 kg/m3 and 957.4 kg/m3
374.7 kPa	957.3 kg/m3
374.8 kPa	957.3 kg/m3
375.5 kPa	957.3 kg/m3
375.8 kPa	957.2 kg/m3
376 kPa	957.3 kg/m3
376.5 kPa	957.4 kg/m3
376.8 kPa	957.4 kg/m3
377.4 kPa	957.3 kg/m3
377.5 kPa	957.4 kg/m3
378.1 kPa	957.4 kg/m3
378.6 kPa	957.4 kg/m3
379.1 kPa	957.3 kg/m3
380.5 kPa	957.4 kg/m3
380.8 kPa	957.5 kg/m3
381.2 kPa	957.5 kg/m3
381.5 kPa	957.5 kg/m3
382.1 kPa	957.3 kg/m3
382.7 kPa	957.3 kg/m3
382.9 kPa	957.4 kg/m3
383.6 kPa	957.4 kg/m3
383.8 kPa	957.4 kg/m3
384.3 kPa	957.4 kg/m3
384.5 kPa	957.4 kg/m3
384.8 kPa	957.5 kg/m3
385.5 kPa	957.4 kg/m3 and 957.5 kg/m3
385.9 kPa	957.4 kg/m3
386.7 kPa	957.5 kg/m3
390.6 kPa	957.4 kg/m3
390.9 kPa	957.4 kg/m3
391.4 kPa	957.3 kg/m3
391.8 kPa	957.5 kg/m3
392 kPa	957.3 kg/m3
392.8 kPa	957.4 kg/m3
393.2 kPa	957.4 kg/m3
393.7 kPa	957.4 kg/m3
394 kPa	957.4 kg/m3
394.9 kPa	957.3 kg/m3
395.1 kPa	957.5 kg/m3
395.4 kPa	957.3 kg/m3
395.8 kPa	957.3 kg/m3
396.3 kPa	957.4 kg/m3
396.8 kPa	957.4 kg/m3
397.2 kPa	957.4 kg/m3
397.7 kPa	957.5 kg/m3
397.9 kPa	957.4 kg/m3
